# From patent US6413911B1, “Herbicidal sulfonylureas, their preparation and use” (BASF Aktiengesellschaft, priority 1992, dated 2002)
# Experiments:
# maize = assay: greenhouse test, post-emergence selectivity in crop plant maize; type: in vivo, Zea mays; settings: 0.06 kg/ha of a.s. post-emergence
# Text: (§1) The cultivation containers used were plastic flowerpots containing loamy sand with about 3.0% humus as a substrate. The seeds of the test plants were sown separately according to species. For the purpose of post-emergence treatment, the test plants were first raised, depending on growth form, to a growth height of from 4 to 15 cm and only then treated with the active compounds suspended or emulsified in water. To do this, the test plants were either directly sown and raised in the same containers or they were first raised separately as seed plants and transplanted into the test containers a few days before the treatment. The application rate for post-emergence treatment was 0.06 kg/ha of a.s. (active substance). The plants were kept in a species-specific manner at 10-25° C. or 20-35° C. The test period extended over 2 to 4 weeks. During this time the plants were tended and their reaction to the individual treatments was assessed. Assessment was carried out on a scale of from 0 to 100. 100 here means no germination of the plants or complete destruction of at least the above-ground parts and 0 means no damage or normal course of growth. The plants used in the greenhouse tests were composed of the following species: [table]
# Amaranthus retroflexus = assay: greenhouse test, post-emergence herbicidal activity; type: in vivo; settings: scale 0-100, Table I
# Text: as §1, with “Comparison of the herbicidal activity of the exemplary compound No. 1.03 with the known comparison compound B on post-emergence application of 0.0313 or 0.0156 kg/ha of a.s. respectively” for “The plants used”, “greenhouse.” for “greenhouse tests were composed of the following species: [table]”
# Solanum nigrum = assay: as above; type: in vivo; settings: scale 0-100, Table I
# Text: as §1, with “Comparison of the herbicidal activity of the exemplary compound No. 1.03 with the known comparison compound B on post-emergence application of 0.0313 or 0.0156 kg/ha of a.s. respectively” for “The plants used”, “greenhouse.” for “greenhouse tests were composed of the following species: [table]”
# Veronica spp. = assay: as above; type: in vivo; settings: scale 0-100, Table I
# Text: as §1, with “Comparison of the herbicidal activity of the exemplary compound No. 1.03 with the known comparison compound B on post-emergence application of 0.0313 or 0.0156 kg/ha of a.s. respectively” for “The plants used”, “greenhouse.” for “greenhouse tests were composed of the following species: [table]”
# Polygonum persicaria = assay: as above; type: in vivo; settings: scale 0-100, Table I
# Text: as §1, with “Comparison of the herbicidal activity of the exemplary compound No. 1.03 with the known comparison compound B on post-emergence application of 0.0313 or 0.0156 kg/ha of a.s. respectively” for “The plants used”, “greenhouse.” for “greenhouse tests were composed of the following species: [table]”
# [1] = system: broad-leaved undesired plants; assay: greenhouse test, post-emergence control of broad-leaved undesired plants; type: in vivo, Abutilon theophrasti; Sinapis alba; settings: 0.06 kg/ha of a.s. post-emergence
# Text: as §1
# Galium aparine = assay: greenhouse test, post-emergence herbicidal activity; type: in vivo
# Text: as §1, with “Comparison of the herbicidal activity of the exemplary compound No. 1.03 with the known comparison compound B on post-emergence application of 0.0313 or 0.0156 kg/ha of a.s. respectively” for “The plants used”, “greenhouse. Comparison” for “greenhouse tests were composed”, “herbicidal activity of the exemplary compound No. 3.01 with the known comparison compound H on post-emergence application of 0.063 or 0.0313 kg/ha of a.s. respectively in the greenhouse.” for “following species: [table]”
# Sinapis alba = assay: as above; type: in vivo
# Text: as §1, with “Comparison of the herbicidal activity of the exemplary compound No. 1.03 with the known comparison compound B on post-emergence application of 0.0313 or 0.0156 kg/ha of a.s. respectively” for “The plants used”, “greenhouse. Comparison” for “greenhouse tests were composed”, “herbicidal activity of the exemplary compound No. 3.01 with the known comparison compound H on post-emergence application of 0.063 or 0.0313 kg/ha of a.s. respectively in the greenhouse.” for “following species: [table]”
# Ipoinea spp. = assay: as above; type: in vivo; settings: scale 0-100, Table II
# Text: as §1, with “Comparison of the herbicidal activity of the exemplary compound No. 3.01 with the known comparison compound H on post-emergence application of 0.063 or 0.0313 kg/ha of a.s. respectively” for “The plants used”, “greenhouse.” for “greenhouse tests were composed of the following species: [table]”
# Alopecurus myosuroides = assay: as above; type: in vivo; settings: scale 0-100, Table II
# Text: as §1, with “Comparison of the herbicidal activity of the exemplary compound No. 3.01 with the known comparison compound H on post-emergence application of 0.063 or 0.0313 kg/ha of a.s. respectively” for “The plants used”, “greenhouse.” for “greenhouse tests were composed of the following species: [table]”
# Triticum aestivum = assay: greenhouse test, post-emergence damage to crop plant; type: in vivo; settings: scale 0-100, Table II
# Text: as §1, with “Comparison of the herbicidal activity of the exemplary compound No. 3.01 with the known comparison compound H on post-emergence application of 0.063 or 0.0313 kg/ha of a.s. respectively” for “The plants used”, “greenhouse.” for “greenhouse tests were composed of the following species: [table]”
# [2] = 0.0156 kg/ha of a.s., scale 0-100, Table I
# [3] = 0.0313 kg/ha of a.s., scale 0-100, Table I
# [4] = 0.0313 kg/ha of a.s., scale 0-100, Table II
# [5] = 0.063 kg/ha of a.s., scale 0-100, Table II
smiles,measurement,setting,value
COC(=O)c1ccccc1S(=O)(=O)NC(=O)Nc1nc(OC)nc(C(F)(F)Cl)n1 [Example 1.03],selectivity in the exemplary crop plant maize,maize,outstanding selectivity
same,Damage [%],Amaranthus retroflexus; 0.0156 kg/ha of a.s.,100%
same,Damage [%],Amaranthus retroflexus; 0.0313 kg/ha of a.s.,100%
same,Damage [%],Solanum nigrum; 0.0156 kg/ha of a.s.,90%
same,Damage [%],Solanum nigrum; 0.0313 kg/ha of a.s.,90%
same,Damage [%],Veronica spp.; 0.0156 kg/ha of a.s.,75%
same,Damage [%],Veronica spp.; 0.0313 kg/ha of a.s.,85%
same,Damage [%],Polygonum persicaria; 0.0156 kg/ha of a.s.,80%
same,Damage [%],Polygonum persicaria; 0.0313 kg/ha of a.s.,80%
same,control of broad-leaved undesired plants,[1],very well controlled
same,Damage [%],Galium aparine; [2],75%
same,Damage [%],Galium aparine; [3],95%
same,Damage [%],Sinapis alba; [2],90%
same,Damage [%],Sinapis alba; [3],90%
COc1nc(NC(=O)NS(=O)(=O)c2ccccc2C(F)(F)F)nc(C(F)F)n1 [Example 3.01],Damage [%],Ipoinea spp.; 0.0313 kg/ha of a.s.,90%
same,Damage [%],Ipoinea spp.; 0.063 kg/ha of a.s.,98%
same,Damage [%],Alopecurus myosuroides; 0.0313 kg/ha of a.s.,98%
same,Damage [%],Alopecurus myosuroides; 0.063 kg/ha of a.s.,98%
same,Damage [%],Triticum aestivum; 0.0313 kg/ha of a.s.,0%
same,Damage [%],Triticum aestivum; 0.063 kg/ha of a.s.,0%
same,Damage [%],Galium aparine; [4],95%
same,Damage [%],Galium aparine; [5],95%
same,Damage [%],Sinapis alba; [4],98%
same,Damage [%],Sinapis alba; [5],98%
